In patent publication US6706663B2, “Herbicidal 3-heterocyclic substituted benzisothiazole and benzisoxazole compounds” (Wyeth, priority 2000, dated 2004):

What was measured:
GALAP (Galium aparine) [1] = test: Postemergence herbicidal evaluation; format: in vivo; conditions: for GALAP herbicidal rating: postemergence
Outline: (§1)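 Seedlings grown for about two weeks were sprayed postemergence and then kept under standard greenhouse care. Injury was rated visually 4–5 weeks after treatment on a 0–9 scale against untreated controls, and ratings from repeat tests were averaged.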

SETVI (Setaria viridis) [2] = test: Postemergence herbicidal evaluation; format: in vivo, (L.) Beau; conditions: for SETVI herbicidal rating: postemergence
Outline: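 Ratings use a 0-9 visual scale covering stand, vigor, malformation, size, chlorosis and appearance versus a control, scored 4-5 weeks post-spray. Roughly two-week-old seedlings received about 0.0040-1.000 kg/ha active, applied in 50/50 acetone/water with 0.5% TWEEN 20. Multiple tests per compound were averaged.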

[3] = tested on: GLXMAW (Soybean, Williams); test: Postemergence herbicidal evaluation; format: in vivo, Glycine max, (L.) Merr. cv Williams; conditions: for GLXMAW herbicidal rating: postemergence
Outline: as §1

GALAP (Galium aparine) [4] = test: Preemergence herbicidal evaluation; format: in vivo; conditions: preemergence, rated 4-5 weeks after treatment
Outline: (§2)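 Greenhouse preemergence test: freshly planted cups were sprayed once with an aqueous acetone solution of compound. Injury was judged visually on a 0–9 scale relative to a control, four to five weeks later.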

[5] = tested on: IPOHE (Ipomoea hederacea); test: Preemergence herbicidal evaluation; format: in vivo, (L.) Jacq.; conditions: preemergence, rated 4-5 weeks after treatment
[6] = tested on: ECHCG (Echinochloa crus-galli); test: Preemergence herbicidal evaluation; format: in vivo, (L.) Beau; conditions: preemergence, rated 4-5 weeks after treatment
Outline: as §2

SETVI (Setaria viridis) [7] = test: Preemergence herbicidal evaluation; format: in vivo, (L.) Beau; conditions: preemergence, rated 4-5 weeks after treatment
Outline: as §2

[8] = tested on: GLXMAW (Soybean, Williams); test: Preemergence herbicidal evaluation; format: in vivo, Glycine max, (L.) Merr. cv Williams; conditions: preemergence, rated 4-5 weeks after treatment
ZEAMX (Corn, Field) = test: Preemergence herbicidal evaluation; format: in vivo, Zea mays, L.; conditions: preemergence, rated 4-5 weeks after treatment
CYPIR (Cyperus iria) = test: Flooded paddy, preemergence weed control; format: in vivo; conditions: rated 3-4 weeks after treatment, 0-9 rating scale
Outline: (§3)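 Seeds or propagules were planted in the top 0.5 cm of silt loam soil and kept flooded 1.5–3 cm above the surface throughout, then held in the greenhouse. Injury was rated visually on a 0–9 scale against untreated controls, covering stand, vigor, malformation, size and chlorosis.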

[9] = tested on: MOOVA (Monochoria vaginalis); test: Flooded paddy, preemergence weed control; format: in vivo, Presl.; conditions: rated 3-4 weeks after treatment, 0-9 rating scale
Outline: as §3

Cn1c(C(F)(F)F)cc(=O)n(-c2ccc3snc(C4OCC(CS(C)(=O)=O)O4)c3c2)c1=O (single isomer, unassigned) [Compound 87, 1-methyl-3-[3-[4-[(methylsulfonyl)methyl]-1,3-dioxolan-2-yl]-1,2-benzisothiazol-5-yl]-6-(trifluoromethyl)uracil]
GALAP herbicidal rating (GALAP (Galium aparine) [1]; rate 0.0320 kg/ha): 9.0 | GALAP herbicidal rating (GALAP (Galium aparine) [1]; rate 0.0620 kg/ha): 9.0 | SETVI herbicidal rating (SETVI (Setaria viridis) [2]; rate 0.0320 kg/ha): 6.0 | SETVI herbicidal rating (SETVI (Setaria viridis) [2]; rate 0.0620 kg/ha): 9.0 | GLXMAW herbicidal rating ([3]; rate 0.0320 kg/ha): 9.0 | GLXMAW herbicidal rating ([3]; rate 0.0620 kg/ha): 8.5 | Preemergence herbicidal rating GALAP (GALAP (Galium aparine) [4]; rate 0.0620 kg/ha): 6.0 | Preemergence herbicidal rating GALAP (GALAP (Galium aparine) [4]; rate 0.1250 kg/ha): 9.0 | Preemergence herbicidal rating GALAP (GALAP (Galium aparine) [4]; rate 0.2500 kg/ha): 9.0 | Preemergence herbicidal rating IPOHE ([5]; rate 0.0620 kg/ha): 5.0 | Preemergence herbicidal rating IPOHE ([5]; rate 0.1250 kg/ha): 6.0 | Preemergence herbicidal rating IPOHE ([5]; rate 0.2500 kg/ha): 9.0 | Preemergence herbicidal rating ECHCG ([6]; rate 0.0620 kg/ha): 5.5 | Preemergence herbicidal rating ECHCG ([6]; rate 0.1250 kg/ha): 6.5 | Preemergence herbicidal rating ECHCG ([6]; rate 0.2500 kg/ha): 9.0 | Preemergence herbicidal rating SETVI (SETVI (Setaria viridis) [7]; rate 0.0620 kg/ha): 6.0 | Preemergence herbicidal rating SETVI (SETVI (Setaria viridis) [7]; rate 0.1250 kg/ha): 8.0 | Preemergence herbicidal rating SETVI (SETVI (Setaria viridis) [7]; rate 0.2500 kg/ha): 9.0 | Preemergence herbicidal rating GLXMAW ([8]; rate 0.0620 kg/ha): 9.0 | Preemergence herbicidal rating GLXMAW ([8]; rate 0.1250 kg/ha): 9.0 | Preemergence herbicidal rating GLXMAW ([8]; rate 0.2500 kg/ha): 9.0 | Preemergence herbicidal rating ZEAMX (ZEAMX (Corn, Field); rate 0.0620 kg/ha): 5.5 | Preemergence herbicidal rating ZEAMX (ZEAMX (Corn, Field); rate 0.1250 kg/ha): 8.0 | Preemergence herbicidal rating ZEAMX (ZEAMX (Corn, Field); rate 0.2500 kg/ha): 8.5 | CYPIR herbicidal rating (CYPIR (Cyperus iria); rate 0.0320 kg/ha): 0.0 | CYPIR herbicidal rating (CYPIR (Cyperus iria); rate 0.1250 kg/ha): 5.0 | MOOVA herbicidal rating ([9]; rate 0.0320 kg/ha): 0.0 | MOOVA herbicidal rating ([9]; rate 0.1250 kg/ha): 8.0

CCOC(=O)C1CS[C@H](c2nsc3ccc(-n4c(=O)cc(C(F)(F)F)n(C)c4=O)cc23)N1 (stereo partly drawn) [Compound 2, ethyl (R)-2-[5-[3,6-dihydro-3-methyl-2,6-dioxo-4-(trifluoromethyl)-1(2H)-pyrimidinyl]-1,2-benzisothiazol-3-yl]-4-thiazolidinecarboxylate]
Postemergence herbicidal rating, GALAP (GALAP (Galium aparine) [1]; rate 0.0320 kg/ha): 5.0 | Postemergence herbicidal rating, GALAP (GALAP (Galium aparine) [1]; rate 0.0620 kg/ha): 6.0 | Postemergence herbicidal rating, SETVI (SETVI (Setaria viridis) [2]; rate 0.0320 kg/ha): 6.0 | Postemergence herbicidal rating, SETVI (SETVI (Setaria viridis) [2]; rate 0.0620 kg/ha): 7.0 | Postemergence herbicidal rating, GLXMAW ([3]; rate 0.0320 kg/ha): 7.0 | Postemergence herbicidal rating, GLXMAW ([3]; rate 0.0620 kg/ha): 7.5 | GALAP preemergence herbicidal rating (GALAP (Galium aparine) [4]; Rate 0.0620 kg/ha): 5.0 | GALAP preemergence herbicidal rating (GALAP (Galium aparine) [4]; Rate 0.1250 kg/ha): 9.0 | GALAP preemergence herbicidal rating (GALAP (Galium aparine) [4]; Rate 0.2500 kg/ha): 9.0 | IPOHE preemergence herbicidal rating ([5]; Rate 0.0620 kg/ha): 9.0 | IPOHE preemergence herbicidal rating ([5]; Rate 0.1250 kg/ha): 9.0 | IPOHE preemergence herbicidal rating ([5]; Rate 0.2500 kg/ha): 9.0 | ECHCG preemergence herbicidal rating ([6]; Rate 0.0620 kg/ha): 2.5 | ECHCG preemergence herbicidal rating ([6]; Rate 0.1250 kg/ha): 6.0 | ECHCG preemergence herbicidal rating ([6]; Rate 0.2500 kg/ha): 8.0 | SETVI preemergence herbicidal rating (SETVI (Setaria viridis) [7]; Rate 0.0620 kg/ha): 8.0 | SETVI preemergence herbicidal rating (SETVI (Setaria viridis) [7]; Rate 0.1250 kg/ha): 8.0 | SETVI preemergence herbicidal rating (SETVI (Setaria viridis) [7]; Rate 0.2500 kg/ha): 9.0 | GLXMAW preemergence herbicidal rating ([8]; Rate 0.0620 kg/ha): 5.5 | GLXMAW preemergence herbicidal rating ([8]; Rate 0.1250 kg/ha): 8.0 | GLXMAW preemergence herbicidal rating ([8]; Rate 0.2500 kg/ha): 8.0 | ZEAMX preemergence herbicidal rating (ZEAMX (Corn, Field); Rate 0.0620 kg/ha): 3.5 | ZEAMX preemergence herbicidal rating (ZEAMX (Corn, Field); Rate 0.1250 kg/ha): 6.5 | ZEAMX preemergence herbicidal rating (ZEAMX (Corn, Field); Rate 0.2500 kg/ha): 7.5 | herbicidal rating, CYPIR (CYPIR (Cyperus iria); rate 0.0320 kg/ha): 0.0 | herbicidal rating, CYPIR (CYPIR (Cyperus iria); rate 0.1250 kg/ha): 2.0 | herbicidal rating, MOOVA ([9]; rate 0.0320 kg/ha): 6.0 | herbicidal rating, MOOVA ([9]; rate 0.1250 kg/ha): 9.0

Cn1c(C(F)(F)F)cc(=O)n(-c2ccc3snc(-c4cccs4)c3c2)c1=O [Compound 3, 1-methyl-3-[3-(2-thienyl)-1,2-benzisothiazol-5-yl]-6-(trifluoromethyl)uracil]
Postemergence herbicidal rating, GALAP (GALAP (Galium aparine) [1]; rate 0.0320 kg/ha): 5.0 | Postemergence herbicidal rating, GALAP (GALAP (Galium aparine) [1]; rate 0.0620 kg/ha): 4.0 | Postemergence herbicidal rating, GALAP (GALAP (Galium aparine) [1]; rate 0.1250 kg/ha): 6.0 | Postemergence herbicidal rating, SETVI (SETVI (Setaria viridis) [2]; rate 0.0320 kg/ha): 3.0 | Postemergence herbicidal rating, SETVI (SETVI (Setaria viridis) [2]; rate 0.0620 kg/ha): 9.0 | Postemergence herbicidal rating, SETVI (SETVI (Setaria viridis) [2]; rate 0.1250 kg/ha): 9.0 | Postemergence herbicidal rating, GLXMAW ([3]; rate 0.0320 kg/ha): 6.0 | Postemergence herbicidal rating, GLXMAW ([3]; rate 0.0620 kg/ha): 6.5 | Postemergence herbicidal rating, GLXMAW ([3]; rate 0.1250 kg/ha): 8.5 | GALAP preemergence herbicidal rating (GALAP (Galium aparine) [4]; Rate 0.0620 kg/ha): 9.0 | GALAP preemergence herbicidal rating (GALAP (Galium aparine) [4]; Rate 0.1250 kg/ha): 9.0 | GALAP preemergence herbicidal rating (GALAP (Galium aparine) [4]; Rate 0.2500 kg/ha): 9.0 | IPOHE preemergence herbicidal rating ([5]; Rate 0.0620 kg/ha): 9.0 | IPOHE preemergence herbicidal rating ([5]; Rate 0.1250 kg/ha): 9.0 | IPOHE preemergence herbicidal rating ([5]; Rate 0.2500 kg/ha): 9.0 | ECHCG preemergence herbicidal rating ([6]; Rate 0.0620 kg/ha): 7.5 | ECHCG preemergence herbicidal rating ([6]; Rate 0.1250 kg/ha): 7.0 | ECHCG preemergence herbicidal rating ([6]; Rate 0.2500 kg/ha): 9.0 | SETVI preemergence herbicidal rating (SETVI (Setaria viridis) [7]; Rate 0.0620 kg/ha): 9.0 | SETVI preemergence herbicidal rating (SETVI (Setaria viridis) [7]; Rate 0.1250 kg/ha): 8.5 | SETVI preemergence herbicidal rating (SETVI (Setaria viridis) [7]; Rate 0.2500 kg/ha): 9.0 | GLXMAW preemergence herbicidal rating ([8]; Rate 0.0620 kg/ha): 5.5 | GLXMAW preemergence herbicidal rating ([8]; Rate 0.1250 kg/ha): 9.0 | GLXMAW preemergence herbicidal rating ([8]; Rate 0.2500 kg/ha): 9.0 | ZEAMX preemergence herbicidal rating (ZEAMX (Corn, Field); Rate 0.0620 kg/ha): 6.5 | ZEAMX preemergence herbicidal rating (ZEAMX (Corn, Field); Rate 0.1250 kg/ha): 6.5 | ZEAMX preemergence herbicidal rating (ZEAMX (Corn, Field); Rate 0.2500 kg/ha): 7.0 | herbicidal rating, CYPIR (CYPIR (Cyperus iria); rate 0.0080 kg/ha): 0.0 | herbicidal rating, CYPIR (CYPIR (Cyperus iria); rate 0.0320 kg/ha): 8.5 | herbicidal rating, CYPIR (CYPIR (Cyperus iria); rate 0.1250 kg/ha): 9.0 | herbicidal rating, MOOVA ([9]; rate 0.0080 kg/ha): 9.0 | herbicidal rating, MOOVA ([9]; rate 0.0320 kg/ha): 9.0 | herbicidal rating, MOOVA ([9]; rate 0.1250 kg/ha): 9.0
